According to US8962574B2 (Boehringer Ingelheim International GmbH, priority 2008, dated 2015):

Legend:
[1] = system: patients with atrial fibrillation at risk of stroke; test: RELY Clinical Trial, dabigatran 110 mg or 150 mg twice daily versus warfarin; assay type: in vivo
Description: The primary study outcome was stroke or systemic embolism. The primary safety outcome was major hemorrhage. Secondary outcomes were stroke, systemic embolism and death. […] All other bleeding was considered minor.
All analyses were based on intention-to-treat.

[2] = system: AF patients; details: ACTIVE W, warfarin arm; cited from earlier work

In the case of CC(=O)CC(c1ccccc1)c1c(O)c2ccccc2oc1=O (racemic) [warfarin, 3-(α-acetonylbenzyl)4-hydroxycoumarin], the “ALT or AST >3xULN” value ([1]; adjusted to INR 2.0 to 3.0) is reported as “(2.1) %”, the “ALT or AST >3xULN with concurrent bilirubin >2xULN” value ([1]; adjusted to INR 2.0 to 3.0) is reported as “(0.4) %” and the “ALT or AST >3xULN with concurrent bilirubin >2xULN, number of patients” value ([1]; adjusted to INR 2.0 to 3.0) is reported as 22. The “ALT or AST >3xULN, number of patients” value ([1]; adjusted to INR 2.0 to 3.0) was 126, the “Adverse Event Arthralgia” value ([1]; adjusted to INR 2.0 to 3.0) was “(5.5) %” and the “Adverse Event Arthralgia, number of patients” value ([1]; adjusted to INR 2.0 to 3.0) was 328. The “Adverse Event Atrial fibrillation” value ([1]; adjusted to INR 2.0 to 3.0) was “(5.4) %”, the “Adverse Event Atrial fibrillation, number of patients” value ([1]; adjusted to INR 2.0 to 3.0) was 326 and the “Adverse Event Back pain” value ([1]; adjusted to INR 2.0 to 3.0) was “(5.5) %”. For the same compound, the “Adverse Event Back pain, number of patients” value ([1]; adjusted to INR 2.0 to 3.0) was 331, the “Adverse Event Chest pain” value ([1]; adjusted to INR 2.0 to 3.0) was “(5.7) %” and the “Adverse Event Chest pain, number of patients” value ([1]; adjusted to INR 2.0 to 3.0) was 342. For the same compound, the “Adverse Event Cough” value ([1]; adjusted to INR 2.0 to 3.0) was “(5.8) %”, the “Adverse Event Cough, number of patients” value ([1]; adjusted to INR 2.0 to 3.0) was 345 and the “Adverse Event Diarrhea” value ([1]; adjusted to INR 2.0 to 3.0) was “(5.5) %”. For the same compound, the “Adverse Event Diarrhea, number of patients” value ([1]; adjusted to INR 2.0 to 3.0) was 327, the “Adverse Event Dizziness” value ([1]; adjusted to INR 2.0 to 3.0) was “(9.3) %” and the “Adverse Event Dizziness, number of patients” value ([1]; adjusted to INR 2.0 to 3.0) was 555. For the same compound, the “Adverse Event Dyspepsia” value ([1]; adjusted to INR 2.0 to 3.0) was “(1.4) %”, the “Adverse Event Dyspepsia, number of patients” value ([1]; adjusted to INR 2.0 to 3.0) was 83 and the “Adverse Event Dyspnoea” value ([1]; adjusted to INR 2.0 to 3.0) was “(9.2) %”. For the same compound, the “Adverse Event Dyspnoea, number of patients” value ([1]; adjusted to INR 2.0 to 3.0) was 550, the “Adverse Event Fatigue” value ([1]; adjusted to INR 2.0 to 3.0) was “(5.9) %” and the “Adverse Event Fatigue, number of patients” value ([1]; adjusted to INR 2.0 to 3.0) was 353. For the same compound, the “Adverse Event Nasopharyngitis” value ([1]; adjusted to INR 2.0 to 3.0) was “(5.5) %”, the “Adverse Event Nasopharyngitis, number of patients” value ([1]; adjusted to INR 2.0 to 3.0) was 327 and the “Adverse Event Peripheral edema” value ([1]; adjusted to INR 2.0 to 3.0) was “(7.6) %”. For the same compound, the “Adverse Event Peripheral edema, number of patients” value ([1]; adjusted to INR 2.0 to 3.0) was 453, the “Adverse Event Upper respiratory tract infection” value ([1]; adjusted to INR 2.0 to 3.0) was “(5.0) %” and the “Adverse Event Upper respiratory tract infection, number of patients” value ([1]; adjusted to INR 2.0 to 3.0) was 297. The “Adverse Event Urinary tract infection” value ([1]; adjusted to INR 2.0 to 3.0) was “(5.3) %”, the “Adverse Event Urinary tract infection, number of patients” value ([1]; adjusted to INR 2.0 to 3.0) was 315 and the “Life threatening bleeding, Rate” value ([1]; adjusted to INR 2.0 to 3.0) was 1.80 /100 Person Years. For the same compound, the “Mortality rate (death from any cause)” value ([1]; adjusted to INR 2.0 to 3.0) was 4.13 % per year, the “Other Major bleeding, Rate” value ([1]; adjusted to INR 2.0 to 3.0) was 1.80 /100 Person Years and the “Pulmonary embolism, Rate” value ([1]; adjusted to INR 2.0 to 3.0) was 0.09 /100 Person Years. The “Rate of hemorrhagic stroke” value ([1]; adjusted to INR 2.0 to 3.0) was 0.38 % per year, the “Rate of major hemorrhage (major bleeding)” value ([1]; adjusted to INR 2.0 to 3.0) was 3.46 % per year and the “Rate of myocardial infarction” value ([1]; adjusted to INR 2.0 to 3.0) was 0.54 % per year. The “Rate of net benefit-risk outcome (major vascular events, major bleeding and death)” value ([1]; adjusted to INR 2.0 to 3.0) was 7.99 % per year, the “Rate of primary outcome stroke or systemic embolism” value ([1]; adjusted to INR 2.0 to 3.0) was 1.70 % per year and the “Reason for discontinuation: Gastrointestinal bleeding” value ([1]; adjusted to INR 2.0 to 3.0) was “(0.9) %”. The “Reason for discontinuation: Gastrointestinal disorders (including pain, vomiting and diarrhea)” value ([1]; adjusted to INR 2.0 to 3.0) was “(0.8) %”, the “Reason for discontinuation: Outcome event” value ([1]; adjusted to INR 2.0 to 3.0) was “(2.2) %” and the “Reason for discontinuation: Patient decision” value ([1]; adjusted to INR 2.0 to 3.0) was “(6.2) %”. The “Reason for discontinuation: SAE” value ([1]; adjusted to INR 2.0 to 3.0) was “(1.6) %”, the “Reason for discontinuation: SAE, number of patients” value ([1]; adjusted to INR 2.0 to 3.0) was 95 and the “Stroke, systemic embolism, pulmonary embolism, myocardial infarction death or major bleed (net benefit), Rate” value ([1]; adjusted to INR 2.0 to 3.0) was 7.99 /100 Person Years. For the same compound, the “Study Drug Discontinuation At one year” value ([1]; adjusted to INR 2.0 to 3.0) was 10%, the “Study Drug Discontinuation At two years” value ([1]; adjusted to INR 2.0 to 3.0) was “(19) %” and the “hepatobiliary disorders (AE)” value ([1]; adjusted to INR 2.0 to 3.0) was “(2.2) %”. For the same compound, the “hepatobiliary disorders (AE), number of patients” value ([1]; adjusted to INR 2.0 to 3.0) was 132, the “hepatobiliary disorders (SAE)” value ([1]; adjusted to INR 2.0 to 3.0) was “(0.4) %” and the “hepatobiliary disorders (SAE), number of patients” value ([1]; adjusted to INR 2.0 to 3.0) was 25. For the same compound, the Rate of discontinuation ([1]; adjusted to INR 2.0 to 3.0, at 2.5 years) was 19%, the “Study Drug Discontinuation At one year” value ([1]; adjusted to INR 2.0 to 3.0, listed as Warfarin) was “(10) %” and the “Myocardial Infarction” value [2] was 0.6% (warfarin). For the same compound, the “Stroke and systemic embolism (per 100 patient years)” value [2] was 1.5% (warfarin).
